Test results published in patent US20070232601A1, “Vla-4 Inhibitor” (priority 2004, published 2007).
pKi: −log10 of the molar value.

Assays:
[1] = molecular target: T1, hα4 and β1 integrins (VLA-4) (Homo sapiens, UniProt P05556+P13612); assay: In vitro evaluation: inhibition of binding of CHO cells expressing hα4 and β1 integrins to Eu3+-hVCAM-1 D1D7-IgG; conditions: ligand Eu3+-hVCAM-1 D1D7-IgG 2 nM, Ki calculated from IC50
T1 construct: expressed in transfected cells; host or cells: CHO cells
In short: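 CHO cells stably expressing hα4β1 were cultured 2 days, then incubated 1 h at room temperature with Eu3+-hVCAM-1 D1D7-IgG (added as 2 nM solution) and compound in HEPES pH 7.5 with Ca2+, Mg2+ and 4 mM Mn2+, ± 6% human serum albumin. Bound europium was read by time-resolved fluorescence; IC50 was converted to Ki using Scatchard-derived Kd.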

[2] = Dispersibility test in Japanese Pharmacopoeia First and Second Solution; format: physicochemical; conditions: for Dispersibility in Japanese Pharmacopoeia First Solution: JP1, pH 1.2; for Dispersibility in Japanese Pharmacopoeia Second Solution: JP2, pH 6.8
Experimental: Dispersibility of a test substance in Japanese Pharmacopoeia First Solution (JP1, pH 1.2) and Japanese Pharmacopoeia Second Solution (JP2, pH 6.8) was evaluated.

T1 sequence (P13612 34-1032): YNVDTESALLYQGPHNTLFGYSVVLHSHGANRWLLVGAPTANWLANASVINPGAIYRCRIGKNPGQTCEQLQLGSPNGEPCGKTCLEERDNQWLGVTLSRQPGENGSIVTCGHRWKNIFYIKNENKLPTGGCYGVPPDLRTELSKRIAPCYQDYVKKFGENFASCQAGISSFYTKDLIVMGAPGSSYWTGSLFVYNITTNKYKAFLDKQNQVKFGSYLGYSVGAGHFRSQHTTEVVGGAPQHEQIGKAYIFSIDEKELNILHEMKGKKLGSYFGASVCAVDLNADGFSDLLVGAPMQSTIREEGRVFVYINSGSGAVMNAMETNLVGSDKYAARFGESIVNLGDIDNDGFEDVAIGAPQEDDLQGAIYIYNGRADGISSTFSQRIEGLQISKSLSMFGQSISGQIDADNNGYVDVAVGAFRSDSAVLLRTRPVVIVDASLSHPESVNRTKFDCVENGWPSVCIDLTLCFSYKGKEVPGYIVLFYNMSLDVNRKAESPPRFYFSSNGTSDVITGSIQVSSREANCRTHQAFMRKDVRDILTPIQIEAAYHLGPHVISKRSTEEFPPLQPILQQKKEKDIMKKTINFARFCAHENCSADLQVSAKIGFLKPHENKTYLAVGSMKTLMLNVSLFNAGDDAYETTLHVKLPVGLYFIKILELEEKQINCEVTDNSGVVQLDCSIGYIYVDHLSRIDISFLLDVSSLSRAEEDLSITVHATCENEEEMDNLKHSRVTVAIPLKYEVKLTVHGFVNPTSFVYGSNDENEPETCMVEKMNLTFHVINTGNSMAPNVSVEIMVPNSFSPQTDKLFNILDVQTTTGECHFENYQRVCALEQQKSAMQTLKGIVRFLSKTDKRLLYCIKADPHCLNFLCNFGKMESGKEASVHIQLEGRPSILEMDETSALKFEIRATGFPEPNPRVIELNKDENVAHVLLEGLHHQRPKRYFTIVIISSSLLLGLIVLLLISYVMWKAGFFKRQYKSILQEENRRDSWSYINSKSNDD
T1 sequence (P05556 21-798): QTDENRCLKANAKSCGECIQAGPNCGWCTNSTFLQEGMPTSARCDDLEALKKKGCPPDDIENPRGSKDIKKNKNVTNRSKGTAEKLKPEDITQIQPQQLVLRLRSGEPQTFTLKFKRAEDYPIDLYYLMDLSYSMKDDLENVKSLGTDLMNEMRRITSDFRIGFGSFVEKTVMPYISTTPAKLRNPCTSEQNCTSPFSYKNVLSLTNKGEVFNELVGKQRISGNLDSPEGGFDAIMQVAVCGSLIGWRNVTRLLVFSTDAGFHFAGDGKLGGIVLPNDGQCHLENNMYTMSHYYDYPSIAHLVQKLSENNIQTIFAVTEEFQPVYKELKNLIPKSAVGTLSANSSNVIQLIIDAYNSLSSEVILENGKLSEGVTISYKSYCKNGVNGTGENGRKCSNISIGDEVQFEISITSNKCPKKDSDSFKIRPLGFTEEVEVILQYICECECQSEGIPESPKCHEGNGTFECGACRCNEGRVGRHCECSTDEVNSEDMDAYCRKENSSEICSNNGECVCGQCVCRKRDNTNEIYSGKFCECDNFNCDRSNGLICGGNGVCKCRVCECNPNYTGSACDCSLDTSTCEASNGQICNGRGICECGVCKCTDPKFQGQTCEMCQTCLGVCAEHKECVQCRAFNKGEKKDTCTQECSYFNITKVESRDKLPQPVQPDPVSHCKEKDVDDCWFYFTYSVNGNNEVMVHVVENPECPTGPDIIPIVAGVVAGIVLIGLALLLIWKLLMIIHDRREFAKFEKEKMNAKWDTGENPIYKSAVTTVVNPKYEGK

| Compound | pKi [1] | Dispersibility in Japanese Pharmacopoeia First Solution [2] | Dispersibility in Japanese Pharmacopoeia Second Solution [2] |
| --- | --- | --- | --- |
| C[C@@H]1CN([C@H]2C[C@@H](c3ncc(CCC(=O)O)s3)N(C(=O)Cc3cc(Cl)c(NC(=O)c4cn(C)c5ccccc45)cc3F)C2)C[C@H](C)O1 [Example 85, 3-[2-[1-[5-Chloro-2-fluoro-4-(1-methyl-3-indolylcarbonylamino)phenylacetyl]-(4S)-[4-(cis-2,6-dimethyl)morpholinyl]-(2S)-pyrrolidinyl]-5-thiazolyl]propionic acid] | 9.00 | 1200 µg/mL | 1300 µg/mL |
| COC1CN([C@H]2C[C@@H](c3ncc(CCC(=O)O)s3)N(C(=O)Cc3cc(Cl)c(NC(=O)c4coc5ccccc45)cc3F)C2)C1 [Example 67, 3-[2-[1-[4-(3-Benzo[b]furanylcarbonylamino)-5-chloro-2-fluorophenylacetyl]-(4S)-[1-(3-methoxy)azetidinyl]-(2S)-pyrrolidinyl]-5-thiazolyl]propionic acid] | 8.92 | 1000 µg/mL | 1000 µg/mL |
| O=C(O)CCc1cnc([C@@H]2C[C@H](N3CCN(CC(F)(F)F)CC3)CN2C(=O)Cc2cc(Cl)c(NC(=O)c3csc4ccccc34)cc2F)s1 [Example 81, 3-[2-[1-[4-(3-Benzo[b]thiophenylcarbonylamino)-5-chloro-2-fluorophenylacetyl]-(4S)-[1-(4-(2,2,2-trifluoro)ethyl)piperazinyl]-(2S)-pyrrolidinyl]-5-thiazolyl]propionic acid] | 8.89 | 210 µg/mL | 680 µg/mL |
| CO[C@H]1C[C@@H](c2ncc(CCC(=O)O)s2)N(C(=O)Cc2cc(Cl)c(Nc3nc4ccccc4s3)cc2F)C1 [Example 111, 3-[2-[1-[4-(2-Benzothiazolyl)amino-5-chloro-2-fluorophenyl]acetyl-(4S)-methoxy-(2S)-pyrrolidinyl]-5-thiazolyl]propionic acid] | 8.48 | 570 µg/mL | 750 µg/mL |
| CCOC1CN([C@H]2C[C@@H](c3ncc(CCC(=O)O)s3)N(C(=O)Cc3cc(Cl)c(NC(=O)c4csc5ccccc45)cc3Cl)C2)C1 [Example 72, 3-[2-[1-[4-(3-Benzo[b]thiophenylcarbonylamino)-2,5-dichlorophenylacetyl]-(4S)-1-(3-ethoxy)azetidinyl-(2S)-pyrrolidinyl]-5-thiazolyl]propionic acid] | 9.17 | 960 µg/mL | 960 µg/mL |
| O=C(O)CCc1cnc([C@@H]2C[C@H](N3CCCCC3)CN2C(=O)Cc2cc(Cl)c(NC(=O)c3csc4ccccc34)cc2F)s1 [Example 47, 3-[2-[1-[4-[(3-Benzo[b]thienylcarbonyl)amino]-5-chloro-2-fluorophenylacetyl]-(4S)-(1-piperidinyl)-(2S)-pyrrolidinyl]-5-thiazolyl]propionic acid] | 9.03 | >2000 µg/mL | 510 µg/mL |
| COC1CN([C@H]2C[C@@H](c3ncc(CCC(=O)O)s3)N(C(=O)Cc3cc(Cl)c(NC(=O)c4coc5ccccc45)cc3Cl)C2)C1 [Example 68, 3-[2-[[1-4-(3-Benzo[b]furanylcarbonylamino)-2,5-dichlorophenylacetyl]-(4S)-[1-(3-methoxy)azetidinyl]-(2S)-pyrrolidinyl]-5-thiazolyl]propionic acid] | 9.14 | 1000 µg/mL | 1000 µg/mL |
| Cn1cc(C(=O)Nc2cc(Cl)c(CC(=O)N3C[C@@H](N4CCC(F)(F)CC4)C[C@H]3c3ncc(CCC(=O)O)s3)cc2Cl)c2ccccc21 [Example 74, 3-[2-[1-[2,5-Dichloro-4-(1-methyl-3-indolylcarbonylamino)phenylacetyl]-(4S)-[1-(4,4-difluoro)piperidinyl]-(2S)-pyrrolidinyl]-5-thiazolyl]propionic acid] | 8.92 | 130 µg/mL | 150 µg/mL |
| C[C@@H]1CN([C@H]2C[C@@H](c3ncc(CCC(=O)O)s3)N(C(=O)Cc3cc(Cl)c(NC(=O)c4coc5ccccc45)cc3Cl)C2)C[C@H](C)O1 [Example 90] | 8.89 | 1100 µg/mL | 1300 µg/mL |
| CO[C@H]1C[C@@H](c2ncc(CCC(=O)O)s2)N(C(=O)Cc2cc(Cl)c(Nc3nc4ccccc4o3)cc2F)C1 [Example 108] | 7.72 | 730 µg/mL | 730 µg/mL |
| C[C@@H]1CN([C@H]2C[C@@H](c3ncc(CCC(=O)O)s3)N(C(=O)Cc3cc(Cl)c(NC(=O)c4csc5ccccc45)cc3Cl)C2)C[C@H](C)O1 [Example 88, 3-[2-[1-[4-(3-Benzo[b]thiophenylcarbonylamino)-2,5-dichlorophenylacetyl]-(4S)-[4-(cis-2,6-dimethyl)morpholinyl]-(2S)-pyrrolidinyl]-5-thiazolyl]propionic acid] | 8.92 | 1200 µg/mL | 1400 µg/mL |
| CO[C@H]1C[C@@H](c2ncc(CCC(=O)O)s2)N(C(=O)Cc2cc(Cl)c(Nc3nc4ccccc4o3)cc2Cl)C1 [Example 109, 3-[2-[1-[4-(2-Benzoxazolyl)amino-2,5-dichlorophenyl)acetyl-(4S)-methoxy-(2S)-pyrrolidinyl]-5-thiazolyl]propionic acid] | 8.20 | 480 µg/mL | 750 µg/mL |
| CCOC1CN([C@H]2C[C@@H](c3ncc(CCC(=O)O)s3)N(C(=O)Cc3cc(Cl)c(NC(=O)c4cn(C)c5ccccc45)cc3Cl)C2)C1 [Example 70, 3-[2-[1-[2,5-Dichloro-4-(1-methyl-3-indolylcarbonylamino)phenylacetyl]-(4S)-[1-(3-ethoxy)azetidinyl]-(2S)-pyrrolidinyl]-5-thiazolyl]propionic acid] | 8.64 | 960 µg/mL | 960 µg/mL |
| O=C(O)CCc1cnc([C@@H]2C[C@H](Oc3cccnc3)CN2C(=O)Cc2cc(Cl)c(NC(=O)c3csc4ccccc34)cc2F)s1 [Example 45, 3-[2-[1-[4-[(3-Benzo[b]thienylcarbonyl)amino]-5-chloro-2-fluorophenylacetyl]-(4S)-(3-pyridyloxy)-(2S)-pyrrolidinyl]-5-thiazolyl]propionic acid] | 8.80 | 2000 µg/mL | 200 µg/mL |
| O=C(O)CCc1cnc([C@@H]2C[C@H](F)CN2C(=O)Cc2cc(Cl)c(NC(=O)c3csc4ccccc34)cc2Cl)s1 [Example 20, 3-[2-[1-[[4-[(3-Benzo[b]thienylcarbonyl)amino]-2,5-dichlorophenyl]acetyl]-(4S)-fluoro-(2S)-pyrrolidinyl]-5-thiazolyl]propionic acid] | 9.16 |  |  |
| CCO[C@H]1CCN(C(=O)Cc2ccc3nc(Nc4cc(F)ccc4C)oc3c2F)[C@@H]1c1ncc(CCC(=O)O)o1 [Example 103, 3-[2-[1-[[7-Fluoro-2-(5-fluoro-2-methylphenyl)amino-6-benzoxazolyl]acetyl]-(3S)-ethoxy-(2S)-pyrrolidinyl]-5-oxazolyl]propionic acid] | 8.59 |  |  |
| Cn1cc(C(=O)Nc2cc(F)c(CC(=O)N3C[C@@H](F)C[C@H]3c3ncc(CCC(=O)O)s3)cc2Cl)c2ccccc21 [Example 19, 3-[2-[1-[5-Chloro-2-fluoro-4-(1-methyl-3-indolylcarbonyl)aminophenylacetyl]-(4S)-fluoro-(2S)-pyrrolidinyl]-5-thiazolyl]propionic acid] | 9.03 |  |  |
| CO[C@H]1C[C@@H](c2ncc(CCC(=O)O)s2)N(C(=O)Cc2cc(Cl)c(NC(=O)c3csc4ccccc34)cc2Cl)C1 [Example 3, 3-[2-[1-[[4-[(3-Benzo[b]thienylcarbonyl)amino]-2,5-dichlorophenyl]acetyl]-(4S)-methoxy-(2S)-pyrrolidinyl]-5-thiazolyl]propionic acid] | 9.24 |  |  |
| CO[C@@H]1C[C@@H](c2ncc(CCC(=O)O)s2)N(C(=O)Cc2cc(Cl)c(Nc3nc4ccccc4o3)cc2Cl)C1 [Example 124, 3-[2-[1-[4-(2-Benzoxazolyl)amino-2,5-dichlorophenyl]acetyl-(4R)-methoxy-(2S)-pyrrolidinyl]-5-thiazolyl]propionic acid] | 7.12 |  |  |
| CCOC[C@@H]1CC[C@@H](c2ncc(CCC(=O)O)s2)N1C(=O)Cc1cc(Cl)c(NC(=O)c2coc3ccccc23)cc1F [Example 50, 3-[2-[1-[4-[(1-Benzofuran-3-ylcarbonyl)amino]-5-chloro-2-fluorophenylacetyl]-(5S)-ethoxymethyl-2(2S)-pyrrolidinyl)-5-thiazolyl]propionic acid] | 7.29 |  |  |
| O=C(O)CCc1cnc([C@@H]2CCCN2C(=O)Cc2cc(Cl)c(NC(=O)c3csc4ccccc34)cc2F)s1 [Example 29, 3-[2-[1-[4-[(3-Benzo[b]thienylcarbonyl)amino]-5-chloro-2-fluorophenylacetyl]-(2S)-pyrrolidinyl]-5-thiazolyl]propionic acid] | 9.59 |  |  |
| CCO[C@H]1CCN(C(=O)Cc2cc(Cl)c(NC(=O)c3cn(C)c4ccccc34)cc2F)[C@@H]1c1ncc(CCC(=O)O)s1 [Example 91, 3-[2-[1-[[5-Chloro-2-fluoro-4-(1-methyl-3-indolylcarbonylamino)phenyl]acetyl]-(3S)-ethoxy-(2S)-pyrrolidinyl]-5-thiazolyl]propionic acid] | 8.39 |  |  |
